In US10308644B2, “Heterocyclic compounds as immunomodulators” (Incyte Corporation, priority 2016, dated 2019):

Biological target: PD-1/PD-L1 (Homo sapiens (Human), UniProt Q9NZQ7)
Assay: PD-1/PD-L1 Homogeneous Time-Resolved Fluorescence (HTRF) Binding Assay
Details: recombinant human PD-1 (3 nM) and PD-L1 (10 nM), 25° C., PBS pH 7.4
Outline: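 Fc-tagged human PD-1 (25-167, 3 nM) and His-tagged PD-L1 (19-238, 10 nM) preincubated with inhibitor 40 min in PBS pH 7.4, 0.05% Tween-20, 0.1% BSA, 1% DMSO, 25 °C. Binding detected by HTRF (Eu anti-IgG/APC anti-His, 665/620 nm) after 60 min; IC50 from percent control activity.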

Sequence of PD-1/PD-L1 (Q9NZQ7 19-238): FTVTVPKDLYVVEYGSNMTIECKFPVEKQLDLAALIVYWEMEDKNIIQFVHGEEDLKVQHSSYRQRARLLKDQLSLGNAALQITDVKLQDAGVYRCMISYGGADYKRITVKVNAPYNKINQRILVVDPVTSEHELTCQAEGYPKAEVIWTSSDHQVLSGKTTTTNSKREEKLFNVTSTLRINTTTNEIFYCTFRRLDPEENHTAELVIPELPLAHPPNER

IC50 [nM]	SMILES
≤ 10	Cc1c(-c2nc3c(o2)CNCC3)cccc1-c1cccc(-c2nc3cc(CN4CC[C@@H](C(=O)O)C4)cc(Cl)c3o2)c1C [Example 78, (R)-1-((7-chloro-2-(2,2′-dimethyl-3′-(4,5,6,7-tetrahydrooxazolo[5,4-c]pyridin-2-yl)-[1,1′-biphenyl]-3-yl)benzo[d]oxazol-5-yl)methyl)pyrrolidine-3-carboxylic acid]
≤ 10	Cc1c(-c2nc3cc(CN4CC[C@@H](C(=O)O)C4)cc(C#N)c3o2)cccc1-c1cccc(-c2nc3c(s2)CN(C(=O)CN2CCC2)C3)c1C [Example 113, (R)-1-((2-(3′-(5-(2-(azetidin-1-yl)acetyl)-5,6-dihydro-4H-pyrrolo[3,4-d]thiazol-2-yl)-2,2′-dimethylbiphenyl-3-yl)-7-cyanobenzo[d]oxazol-5-yl)methyl)pyrrolidine-3-carboxylic acid]
≤ 10	Cc1c(-c2nc3c(o2)CN(C(=O)[C@@H]2CCCN2C)C3)cccc1-c1cccc(-c2nc3cc(CN4CC[C@@H](C(=O)O)C4)cc(C#N)c3o2)c1C [Example 124, (R)-1-((7-cyano-2-(2,2′-dimethyl-3′-(5-(methyl-L-prolyl)-5,6-dihydro-4H-pyrrolo[3,4-d]oxazol-2-yl)-[1,1′-biphenyl]-3-yl)benzo[d]oxazol-5-yl)methyl)pyrrolidine-3-carboxylic acid]
≤ 10	Cc1c(Nc2nccc3cc(C(C)N4CC[C@@H](O)C4)cnc23)cccc1-c1cccc(-c2nc3cc(CN4CC[C@@H](C(=O)O)C4)cc(C#N)c3o2)c1C (stereo partly drawn) [Example 140, (3R)-1-((7-cyano-2-(3′-(3-(1-((R)-3-hydroxypyrrolidin-1-yl)ethyl)-1,7-naphthyridin-8-ylamino)-2,2′-dimethylbiphenyl-3-yl)benzo[d]oxazol-5-yl)methyl)pyrrolidine-3-carboxylic acid]
≤ 10	Cc1c(-c2nc3cc(CN4CC[C@@H](O)C4)cc(C#N)c3o2)cccc1-c1cccc(NC(=O)c2nc3c(n2C)CCN(C2CCCC(C(=O)O)CC2)C3)c1Cl (stereo partly drawn) [Example 264, 4-(2-(2-chloro-3′-(7-cyano-5-(((R)-3-hydroxypyrrolidin-1-yl)methyl)benzo[d]oxazol-2-yl)-2′-methylbiphenyl-3-ylcarbamoyl)-1-methyl-6,7-dihydro-1H-imidazo[4,5-c]pyridin-5(4H)-yl)cycloheptane carboxylic acid]
≤ 10	Cc1c(-c2nc3cc(CN4CC[C@@H](C(=O)O)C4)cc(C#N)c3o2)cccc1-c1cccc(-n2cc3c(n2)CN(C)C3)c1Cl [Example 55, (R)-1-((2-(2′-chloro-2-methyl-3′-(5-methyl-5,6-dihydropyrrolo[3,4-c]pyrazol-2(4H)-yl)biphenyl-3-yl)-7-cyanobenzo[d]oxazol-5-yl)methyl)pyrrolidine-3-carboxylic acid]
≤ 10	Cc1c(NC(=O)c2nc3c(n2C)CCN(C)C3)cccc1-c1cccc(-c2nc3cc(CN4CC[C@@](C)(C(=O)O)C4)cc(C#N)c3o2)c1C [Example 260, (R)-1-((7-cyano-2-(3′-(1,5-dimethyl-4,5,6,7-tetrahydro-1H-imidazo[4,5-c]pyridine-2-carboxamido)-2,2′-dimethylbiphenyl-3-yl)benzo[d]oxazol-5-yl)methyl)-3-methylpyrrolidine-3-carboxylic acid]
≤ 10	Cc1c(-c2nc3cc(CN4CC[C@@H](C(=O)O)C4)cc(Cl)c3o2)cccc1-c1cccc(-c2nc3c(s2)CN(C(C)C)CC3)c1C [Example 59, (R)-1-((7-chloro-2-(3′-(5-isopropyl-4,5,6,7-tetrahydrothiazolo[5,4-c]pyridin-2-yl)-2,2′-dimethyl-[1,1′-biphenyl]-3-yl)benzo[d]oxazol-5-yl)methyl)pyrrolidine-3-carboxylic acid]
≤ 10	Cc1c(-c2nc3cc(CN4CC[C@@](C)(C(=O)O)C4)cc(C#N)c3o2)cccc1-c1cccc(NC(=O)c2nc3c(n2C)CCN(C)C3)c1Cl [Example 88, (R)-1-((2-(2′-chloro-3′-(1,5-dimethyl-4,5,6,7-tetrahydro-1H-imidazo[4,5-c]pyridine-2-carboxamido)-2-methylbiphenyl-3-yl)-7-cyanobenzo[d]oxazol-5-yl)methyl)-3-methylpyrrolidine-3-carboxylic acid]

Continued, compound first:

SMILES	IC50 [nM]
Cc1c(-c2nc3cc(CN4CC[C@@H](C(=O)NS(C)(=O)=O)C4)cc(C#N)c3o2)cccc1-c1cccc(-c2nc3c(s2)CN(C(C)C)CC3)c1C [Example 238, (R)-1-((7-cyano-2-(3′-(5-isopropyl-4,5,6,7-tetrahydrothiazolo[5,4-c]pyridin-2-yl)-2,2′-dimethyl-[1,1′-biphenyl]-3-yl)benzo[d]oxazol-5-yl)methyl)-N-(methylsulfonyl)pyrrolidine-3-carboxamide]	≤ 10
Cc1c(Nc2nccc3cc(CN4CC[C@H](O)C4)cnc23)cccc1-c1cccc(-c2nc3cc(CN(C)CCC(=O)O)cc(Cl)c3o2)c1C [Example 21, (S)-3-(((7-chloro-2-(3′-(3-((3-hydroxypyrrolidin-1-yl)methyl)-1,7-naphthyridin-8-ylamino)-2,2′-dimethylbiphenyl-3-yl)benzo[d]oxazol-5-yl)methyl)(methyl)amino)propanoic acid]	≤ 10
Cc1c(Nc2nccc3cc(CN4CC[C@@H](O)C4)cnc23)cccc1-c1cccc(-c2nc3cc(CN[C@H]4C[C@H](C(=O)O)C4)cc(C#N)c3o2)c1C [Example 181, trans-3-((7-cyano-2-(3′-(3-(((R)-3-hydroxypyrrolidin-1-yl)methyl)-1,7-naphthyridin-8-ylamino)-2,2′-dimethylbiphenyl-3-yl)benzo [d]oxazol-5-yl)methylamino)cyclobutane carboxylic acid]	≤ 10
Cc1c(-c2nc3cc(CN4CC5(CC(C(=O)O)C5)C4)cc(C#N)c3o2)cccc1-c1cccc(-c2nc3c(s2)CN(C(=O)CN(C)[C@H](C)CO)C3)c1C [Example 231, 2-((7-cyano-2-(3′-(5-(2-(((R)-1-hydroxypropan-2-yl)(methyl)amino)acetyl)-5,6-dihydro-4H-pyrrolo[3,4-d]thiazol-2-yl)-2,2′-dimethylbiphenyl-3-yl)benzo[d]oxazol-5-yl)methyl)-2-azaspiro[3.3]heptane-6-carboxylic acid]	≤ 10
Cc1c(Nc2nccc3cc(CN4CC[C@@H](O)C4)cnc23)cccc1-c1cccc(-c2nc3cc(CN[C@H]4CC[C@@H](C(=O)O)CC4)cc(C#N)c3o2)c1C [Example 172, cis-4-((7-cyano-2-(3′-(3-(((R)-3-hydroxypyrrolidin-1-yl)methyl)-1,7-naphthyridin-8-ylamino)-2,2′-dimethylbiphenyl-3-yl)benzo[d]oxazol-5-yl)methylamino) cyclohexanecarboxylic acid]	≤ 10
Cc1c(Nc2nccc3cc(CNCC4(O)CC4)cnc23)cccc1-c1cccc(-c2nc3cc(CN4CC[C@@](C)(C(=O)O)C4)cc(C#N)c3o2)c1C [Example 199, (R)-1-((7-cyano-2-(3′-(3-(((1-hydroxycyclopropyl)methylamino)methyl)-1,7-naphthyridin-8-ylamino)-2,2′-dimethylbiphenyl-3-yl)benzo[d]oxazol-5-yl)methyl)-3-methylpyrrolidine-3-carboxylic acid]	≤ 10
Cc1c(-c2nc3cc(CN4CCCC4)cc(C#N)c3o2)cccc1-c1cccc(NC(=O)c2nc3c(n2C)CCN(C[C@H]2CC[C@H](C(=O)O)CC2)C3)c1Cl [Example 271, trans-4-((2-(2-chloro-3′-(7-cyano-5-(pyrrolidin-1-ylmethyl)benzo[d]oxazol-2-yl)-2′-methylbiphenyl-3-ylcarbamoyl)-1-methyl-6,7-dihydro-1H-imidazo[4,5-c]pyridin-5(4H)-yl)methyl)cyclohexanecarboxylic acid]	≤ 10
Cc1c(Nc2nccc3cc(CNCC(C)(C)O)cnc23)cccc1-c1cccc(-c2nc3cc(CN4CCCC[C@H]4C(=O)O)cc(Cl)c3o2)c1C [Example 4, (S)-1-((7-chloro-2-(3′-((3-(((2-hydroxy-2-methylpropyl)amino)methyl)-1,7-naphthyridin-8-yl)amino)-2,2′-dimethyl-[1,1′-biphenyl]-3-yl)benzo[d]oxazol-5-yl)methyl)piperidine-2-carboxylic acid]	≤ 10
Cc1c(Nc2nccc3cc(CN4CC[C@@H](O)C4)cnc23)cccc1-c1cccc(-c2nc3cc(CN4CC[C@@H](C(=O)O)C4)cc(Cl)c3o2)c1C [Example 18, (R)-1-((7-chloro-2-(3′-(3-(((R)-3-hydroxypyrrolidin-1-yl)methyl)-1,7-naphthyridin-8-ylamino)-2,2′-dimethylbiphenyl-3-yl)benzo[d]oxazol-5-yl)methyl)pyrrolidine-3-carboxylic acid]	≤ 10
Cc1c(-c2nc3cc(CN4CC5CC4CC5C(=O)O)cc(C#N)c3o2)cccc1-c1cccc(-c2nc3c(s2)CN(C(=O)CN(C)C)C3)c1C (stereo not drawn) [Example 237, 2-((7-cyano-2-(3′-(5-(2-(dimethylamino)acetyl)-5,6-dihydro-4H-pyrrolo[3,4-d]thiazol-2-yl)-2,2′-dimethylbiphenyl-3-yl)benzo[d]oxazol-5-yl)methyl)-2-azabicyclo[2.2.1]heptane-5-carboxylic acid]	≤ 10
Cc1c(Nc2nccc3cc(CNCCO)cnc23)cccc1-c1cccc(-c2nc3cc(CN4CC[C@@](C)(C(=O)O)C4)cc(C#N)c3o2)c1C [Example 189, (R)-1-((7-cyano-2-(3′-(3-((2-hydroxyethylamino)methyl)-1,7-naphthyridin-8-ylamino)-2,2′-dimethylbiphenyl-3-yl)benzo[d]oxazol-5-yl)methyl)-3-methylpyrrolidine-3-carboxylic acid]	≤ 10
Cc1nc(CN2CC[C@H](O)C2)cnc1OCc1cccc(-c2cccc(-c3nc4cc(CN5CCC(C(=O)O)C5)cc(Cl)c4o3)c2C)c1Cl (stereo partly drawn) [Example 153, 1-((7-chloro-2-(2′-chloro-3′-((5-(((S)-3-hydroxypyrrolidin-1-yl)methyl)-3-methylpyrazin-2-yloxy)methyl)-2-methylbiphenyl-3-yl)benzo[d]oxazol-5-yl)methyl)pyrrolidine-3-carboxylic acid]	≤ 10
